The text below walks through data of patent publication US20230270805A1, “A COMPOSITION COMPRISING AN EXTRACT OF ALDER TREE OR THE ISOLATED COMPOUNDS THEREFROM FOR TREATING AND PREVENTING SKELETON MUSCLE-RELATED DISORDER AND THE USE THEREOF” (Sookmyung Women's University Indusutry-Academic Cooperation …, priority 2020, published 2023).

Test [1] is described as follows: Body weight in dexamethasone animal model of muscle loss. Type of test: in vivo, mouse. The following applies: dexamethasone 1 mg/kg s.c. alone. As for the experimental part:
(§1) Dexamethasone, a synthetic glucocorticoid, was injected subcutaneously into C57/BL6 mouse mice to establish an animal model of muscle loss and following experiment was performed.
(§2) To establish an in vivo model of muscle loss, 6 weeks-old male C57/BL6 mice (Raon Bio, 6 weeks old, weight range: 32-36 g) were acclimated for one-week, and then weighed animals determined to be healthy during the acclimatization period. The mice close to the average weight were selected using a simple random sampling method and were classified into five groups, namely, (a) a control group, (b) a muscle loss control group (treated with dexamethasone 1 mg/kg), (c) test sample group treated with inventive extract 250 mg/kg and dexamethasone, (d) test sample group treated with inventive extract 500 mg/kg and dexamethasone, and (e) positive control treated with oxymetholone (Celltrion Co. Ltd, ATC #A14AA05, 10 mg/kg) and dexamethasone.
(§3) The inventive Extract and oxymetholone were administered once to the mice daily for 4 weeks and dexamethasone was injected subcutaneously for 10 days from 10 days before the end of co-treatment of inventive extract and oxymetholone.
(§4) Both of inventive extract and oxymetholone were forcibly administered orally using zonde for oral administration after holding and fixing the skin of the animal's poll area, and dexamethasone was injected slowly subcutaneously after inserting a syringe into the dorsal skin fold of the animal held on the thumb and index finger, slightly aspirating whether it was injected normally, and confirming that no blood came out.
The body weight of every animal was measured once a week for 4 weeks from the day of inventive extract administration.

The test system of a further test is MAFbx. Briefly: Western blot of MAFbx in dexamethasone-treated myotube cells (in vitro model of muscle loss). The following applies: myotube cells treated with dexamethasone alone; untreated cells = 1. The format is cell-based, mouse. The protocol: (§5) In order to confirm the inhibitory effect of the inventive extract obtained in Example, dexamethasone was treated to myotube cell to establish in vitro model of muscle loss and following experiment was performed according to the procedure disclosed in the previous literature (Int. J. Mol. Med. 2015, 36:29).
In particular, following experiment was performed according to the procedure disclosed in the previous literature to find out whether inventive extract takes an effect on MAFbx expression during muscle protein degradation by dexamethasone treatment since the activity of MAFbx, a muscle proteolytic enzyme, is known to induce muscle protein loss (Biomed. Pharmacother. 2017, 95:1486)
For Western blot analysis, about 3×10^4 mouse myoblast cell cells (C2C12; CRL-1772 ATCC) were incubated in 60 mm plates for 24 hours, and various concentrations of each inventive extract (0, 1, 10, 100 ng/mL) was added to the differentiation medium for 3 days to differentiate. The protein extract was obtained from the differentiated cells using by lysis buffer [25 mM Tris-HCl (pH 7.5), 100 mM NaCl, 1% NP-40, 1% sodium deoxycholate, 0.1% sodium dodecyl sulfate (SDS), and protease inhibitor cocktail, Calbiochem, Darmstadt, Germany). The protein extract (25 μg) was performed to SDS-polyacrylamide gel electorphoresis (PAGE) and transferred to polyvinylidene fluoride (PVDF) membranes. […]
(In general: In western blotting, separated proteins are transferred to a membrane and probed.)

For test [2], the system named is C57/BL6 mice. Briefly: Treadmill test in dexamethasone animal model of muscle loss. Type of test: in vivo, mouse. The following applies: dexamethasone 1 mg/kg s.c. alone. The protocol:
as §1, §2, §3, §4
The determination was performed on the 14th and 28th days after the administration of test sample.

For test [3], the system named is C57/BL6 mice. The test can be described thus: Weight of muscle mass, epididymal fat and liver in dexamethasone animal model of muscle loss. The following applies: dexamethasone 1 mg/kg s.c. alone, autopsy at 4 weeks. Type of test: in vivo, mouse. As for the experimental part:
as §1, §2, §3, §4
The mice were anesthetized with anesthetic to prevent the movement of experimental animals and sacrificed to minimize pain to dissect them. All instruments used during the experiment were sterilized and disinfected and their liver and epididymis fat were harvested.
The gastrocnemius muscle and soleus muscle of the mice were separated, washed in saline, drained, and weighed.
After autopsy at 4 weeks after administration, the weight of liver and Epididymis fat was weighed to calculate weight-to-weight to compare the relative differences between the organ's weight in the groups.

Another test has as its system MHC. The test can be described thus: Western blot of MHC in dexamethasone-treated myotube cells (in vitro model of muscle loss). Type of test: cell-based, mouse. The following applies: myotube cells treated with dexamethasone alone; untreated cells = 1. The protocol:
as §5
For Western blot analysis, about 3×10^4 mouse myoblast cell cells (C2C12; CRL-1772 ATCC) were incubated in 60 mm plates for 24 hours, and various concentrations of each inventive extract (0, 1, 10, 100 ng/mL) was added to the differentiation medium for 3 days to differentiate. The protein extract was obtained from the differentiated cells using by lysis buffer [25 mM Tris-HCl (pH 7.5), 100 mM NaCl, 1% NP-40, 1% sodium deoxycholate, 0.1% sodium dodecyl sulfate (SDS), and protease inhibitor cocktail, Calbiochem, Darmstadt, Germany). The protein extract (25 μg) was performed to SDS-polyacrylamide gel electorphoresis (PAGE) and transferred to polyvinylidene fluoride (PVDF) membranes.
Primary mouse anti-MHC (sc-376157, Santa Cruz) or primary mouse anti-MAFbx (sc-166806, Santa Cruz) was conjugated to the blots at 4° C., for 12 hrs and then conjugated with anti-mouse secondary antibody conjugated to Horseradish peroxidase (goat anti-mouse IgG-HRP, sc-2005, Santa Cruz) to analyze the amount of MHC and MAFbx protein by chemiluminescence method. […]

In test [4] the test system is C57/BL6 mice. Briefly: Grip strength test in dexamethasone animal model of muscle loss. The following applies: dexamethasone 1 mg/kg s.c. alone. Type of test: in vivo, mouse. As for the experimental part:
as §1, §2, §3, §4
The grip strength of mice was determined as follows; after grabbing the animal's tail and placing it on the grid, the front foot and body were pulled at the same speed until the front foot and body were held at the grid with the front paw, and the average value was calculated after three experimental repetitions. The determination was performed on the 14th and 28th days after the administration of test sample.

As for `C[C@@H]1C[C@H]2[C@@H]3CCC4=CC(=O)C=C[C@]4(C)[C@@]3(F)[C@@H](O)C[C@]2(C)[C@@]1(O)C(=O)CO` [Dexa, dexamethasone], the body weight in test [1] (0 week) is reported as 22.33 ± 1.11 gram; in test [1] (1 week), 22.84 ± 1.54 gram; in test [1] (2 weeks), 23.46 ± 1.60 gram; in test [1] (3 weeks), 23.57 ± 1.81 gram; in test [1] (4 weeks) it was 23.57 ± 1.76^ab gram. The same compound gave an MAFbx expression with MAFbx of 1.9 fold. The “motility (treadmill)” value in the test with C57/BL6 mice [2] (2 weeks) is 798.85 ± 14.33 meter; in the test on C57/BL6 mice [2] (4 weeks), 745.73 ± 30.01 meter. Moreover, in the test on C57/BL6 mice [3], the “absolute weight, epididymal fat” value was found to be 0.51 ± 0.10 gram. In the test with C57/BL6 mice [3] (gastrocnemius), the “absolute weight, calf muscle” value is 0.242 ± 0.014 gram. In the test on C57/BL6 mice [3] (soleus), the “absolute weight, fluke muscle” value was 0.014 ± 0.002^c gram. In the test with MHC, this compound yielded an MHC expression of 0.7 fold. The grip strength in the test with C57/BL6 mice [4] (2 weeks) is 1.05 ± 0.08 N; in the test with C57/BL6 mice [4] (4 weeks), 0.94 ± 0.12^b N.
